# Data taken from patent US10696985B1, “Reversibly crosslinked endosomolytic polymer vesicles for cytosolic drug delivery” (Vanderbilt University, priority 2016, dated 2020).
# Tests used:
# [1] = Encapsulation efficiency of cargo in PEG-EBP polymer vesicles; conditions: cGAMP within PEG-EBP vesicles; high performance liquid chromatography
# Protocol: Encapsulation efficiency is defined as the percentage of cargo associated with the vesicle after cargo loading and separation of vesicles from unencapsulated cargo. N=number of experiments performed for a specific cargo type.
# For formulation of polymeric vesicles, 5 mg of the polymer is mixed with 4 μL of ethanol. Upon equilibration, 4 μL of cGAMP solution (0-50 mg/mL in water) is added to the polymer/ethanol gel. […] Upon formation of vesicles, the colloid is diluted into water and sonicated further to generate the PEG-EBP encapsulated cGAMP colloid.
# Solvent composition and stepwise addition amounts were chosen to maximize the vesicle yield of the formulation process while maximizing encapsulant concentration during vesicle self-assembly. […] Particles were crosslinked post assembly via addition of 0.5 molar equivalents of DTT relative to pyidyl disulfide moieties comprising the PEG-EBP colloid. Nanoparticles were readily separated from free cGAMP and crosslinking byproducts via centrifugal ultrafiltration using a 10 kDa cutoff.
# Pyridyl disulfide (PDS) moieties were exploited for post-assembly in situ crosslinking of the vesicle membrane via partial reduction of disulfide bonds with DTT.
# TLR-2 = target: T1, TLR-2 (Mus musculus, UniProt Q9EPQ1+Q9QUN7); assay: RAW264.7 NF-κB reporter cell assay; format: cell-based; conditions: incorporated into the PEG-EBP vesicle membrane, versus free Pam3CSK4
# T1 construct: endogenous in cells; host or cells: RAW264.7 NF-kB reporter cells
# T1 sequence (Q9QUN7 25-784): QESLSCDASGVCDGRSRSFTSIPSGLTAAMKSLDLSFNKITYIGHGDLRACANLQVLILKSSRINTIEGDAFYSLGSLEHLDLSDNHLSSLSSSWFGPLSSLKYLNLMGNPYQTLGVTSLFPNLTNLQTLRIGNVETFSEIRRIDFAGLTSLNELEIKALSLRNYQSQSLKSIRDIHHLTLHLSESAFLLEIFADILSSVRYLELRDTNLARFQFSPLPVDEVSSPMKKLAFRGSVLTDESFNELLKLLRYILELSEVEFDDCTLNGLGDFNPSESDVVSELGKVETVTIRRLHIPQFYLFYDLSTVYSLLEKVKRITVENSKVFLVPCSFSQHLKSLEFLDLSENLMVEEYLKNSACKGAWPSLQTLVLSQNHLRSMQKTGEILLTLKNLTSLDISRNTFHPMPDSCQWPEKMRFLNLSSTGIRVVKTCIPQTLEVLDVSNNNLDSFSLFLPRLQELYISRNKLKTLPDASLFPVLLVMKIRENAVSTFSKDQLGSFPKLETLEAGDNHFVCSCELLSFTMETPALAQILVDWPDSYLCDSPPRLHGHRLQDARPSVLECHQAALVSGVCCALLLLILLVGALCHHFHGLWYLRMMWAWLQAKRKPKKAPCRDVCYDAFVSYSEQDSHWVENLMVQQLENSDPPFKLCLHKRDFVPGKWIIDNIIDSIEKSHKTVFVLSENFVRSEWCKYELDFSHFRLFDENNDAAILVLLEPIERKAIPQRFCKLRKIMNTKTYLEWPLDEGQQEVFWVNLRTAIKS
# T1 sequence (Q9EPQ1 25-795 limits assumed): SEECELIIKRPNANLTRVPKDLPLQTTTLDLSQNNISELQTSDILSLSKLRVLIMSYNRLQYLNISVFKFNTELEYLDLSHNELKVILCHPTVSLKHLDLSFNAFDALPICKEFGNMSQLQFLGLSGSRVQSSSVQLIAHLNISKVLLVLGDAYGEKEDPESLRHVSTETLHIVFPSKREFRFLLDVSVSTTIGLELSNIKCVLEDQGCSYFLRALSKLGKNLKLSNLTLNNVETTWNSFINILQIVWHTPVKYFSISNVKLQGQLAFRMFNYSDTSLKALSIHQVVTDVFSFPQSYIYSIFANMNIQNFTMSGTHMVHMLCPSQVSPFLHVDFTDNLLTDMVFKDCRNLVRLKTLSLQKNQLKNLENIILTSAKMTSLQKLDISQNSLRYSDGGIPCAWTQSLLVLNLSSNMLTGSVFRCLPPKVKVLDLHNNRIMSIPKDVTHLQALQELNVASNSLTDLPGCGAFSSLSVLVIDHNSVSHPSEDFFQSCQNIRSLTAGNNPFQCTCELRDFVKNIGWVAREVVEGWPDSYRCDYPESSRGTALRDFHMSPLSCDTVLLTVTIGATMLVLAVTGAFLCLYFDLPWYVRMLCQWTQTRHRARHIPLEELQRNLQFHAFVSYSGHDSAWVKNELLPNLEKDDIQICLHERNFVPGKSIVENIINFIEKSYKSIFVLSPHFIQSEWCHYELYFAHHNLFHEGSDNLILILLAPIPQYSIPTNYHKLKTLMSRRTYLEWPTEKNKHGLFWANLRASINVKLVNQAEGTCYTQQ
# Source text: PEG-EBP polymer vesicles were also shown to serve as a carrier for agonists of pattern recognition receptors (PRRs) that reside on the cell surface. […] The reduced activity of Pam3CSK4 incorporated into vesicles is thought to be primarily related to the ˜50% of Pam3CSK4 molecules that are incorporated into the inner leaflet of the vesicle membrane, and therefore are not accessible for binding to cell surface TLR-2 molecules.
immunostimulatory activity (TLR-2),Molecule,encapsulation efficiency [1] [%]
–,"Nc1nc2c(ncn2[C@@H]2O[C@@H]3COP(=O)(O)O[C@H]4[C@@H](O)[C@H](n5cnc6c(N)ncnc65)O[C@@H]4COP(=O)(O)O[C@@H]2[C@@H]3O)c(=O)[nH]1 [cGAMP, cyclic guanosine monophosphate-adenosine monophosphate]",38±3
partially retained,Pam3CSK4,–
